Measured values reported in patent US8940800B2, “Pharmaceutical compositions with enhanced performance” (Bend Research, Inc., priority 2004, dated 2015).
“And” between values parts separate entries of the source, which are not always exact repeats. Equal values may be shown once. One block for each molecule: values may come before it.

Experiments:
[1] = In vitro dissolution test, microcentrifuge method, PBS (Example 1); format: physicochemical; settings: PBS pH 6.5, 37° C.; for AUC90: 90 minutes; for C1200: concentration at 1200 minutes; for MDC,90: maximum concentration during first 90 minutes
Method: Dispersions 2, 3, 4, and 10 were evaluated in in vitro dissolution tests using a microcentrifuge method. In this method, 3.6 mg of the spray-dried dispersions was added to a 2-mL microcentrifuge tube. The tube was placed in a 37° C. sonicating bath, and 1.8 mL of phosphate-buffered saline (PBS) at pH 6.5 and 290 mOsm/kg was added. The samples were quickly mixed using a vortex mixer for about 90 seconds. The theoretical maximum concentration of drug if all the drug dissolved was 1000 μg/mL. The samples were centrifuged at 13,000 G at 37° C. for 1 minute. The resulting supernatant solution was then sampled (100 μL) and diluted with 200 μL methanol and then analyzed by HPLC. The tubes were then mixed on the vortex mixer and allowed to stand undisturbed at 37° C. until the next sample. Samples were collected at 4, 10, 20, 40, 90, and 1200 minutes.
As controls, in vitro tests were performed using the procedure described above, except that 0.18 mg of crystalline drug was placed in a microcentrifuge tube and mixed with 1.8 mL of PBS.

[2] = In vitro membrane permeation test, Drug 1 (Example 6); format: physicochemical; settings: 37° C.
Method: Dispersion 14 was evaluated in vitro using a membrane permeation test as follows. An Accurel® PP 1E microporous polypropylene membrane was obtained from Membrana GmbH (Wuppertal, Germany). The membrane was washed in isopropyl alcohol and rinsed in methanol in a sonicating bath for 1 minute at ambient temperature, and then allowed to air dry at ambient temperature. The feed side of the membrane was then plasma-treated to render it hydrophilic by placing a sample of the membrane in a plasma chamber. The atmosphere of the plasma chamber was saturated with water vapor at a pressure of 550 mtorr. A plasma was then generated using radio frequency (RF) power inductively coupled into the chamber via annular electrodes at a power setting of 50 watts for 45 seconds. The contact angle of a drop of water placed on the surface of the plasma-treated membrane was about 40°. […]
To form the feed solution, a 1.2 mg sample of the dispersion was weighed into the feed reservoir. […] Samples were then diluted in 250 μL IPA and analyzed using HPLC. […]
The maximum flux of drug across the membrane (in units of μg/cm^2-min) was determined by performing a least-squares fit to the data from 0 to 60 minutes to obtain the slope, multiplying the slope by the permeate volume (5 mL), and dividing by the membrane area (4.9 cm^2). […]

[3] = Microcentrifuge dissolution test in MFD solution, crystallization inhibition (Example 5); format: physicochemical; settings: 37° C.
Method: First, Dispersions 12 and 13 were evaluated in an in vitro dissolution test using the microcentrifuge method described in Example 1 except that 2.04 mg of the dispersions were separately added to microcentrifuge tubes in duplicate. A 1.8-mL sample of a model fasted duodenal (MFD) solution was then added to the tube and the samples were quickly mixed using a vortex mixer for about 90 seconds. The theoretical maximum concentration of drug if all the drug dissolved was about 100 μgA/mL, where “μgA” refers to the active micrograms of Drug 5. Samples were collected and analyzed by HPLC using a Kromasil C4 column (250 mm×4.6 mm). The mobile phase consisted of 0.2 vol % H3PO4/acetonitrile in a volume ratio of 45/55. Drug concentration was calculated by comparing UV absorbance at 245 nm to the absorbance of Drug 5 standards.
As a control, […] of Drug 5 (in the HCl salt form) was added to a separate microcentrifuge tube so that the concentration of drug if all of the drug had dissolved would have been about 200 μgA/mL. […] The MDC90 values provided by Dispersions 12 and 13 were 3.5-fold and 3.0-fold that of the crystalline Drug 5 control, while the AUC90 values were 2.6-fold and 2.7-fold that of the crystalline control. Furthermore, the concentration of dissolved Drug 5 after 1200 minutes (C1200) was higher for Dispersions 12 and 13 than the crystalline control, with Dispersions 12 and 13 providing C1200 values that were 1.7- and 1.4-fold that of the crystalline control, respectively.

[4] = Solubility of drug in polymer by double-scan DSC (Example 3); format: physicochemical
Method: The solubilities of drug in HPMCAS polymers were determined using a double-scan differential scanning calorimetry (DSC) analysis of the dispersions as follows. The DSC analysis was carried out on either a TA Instruments DSC2920 or a Mettler DSC 821, calibrated with indium. DSC samples were prepared by weighing 2-4 mg of the dispersion in an aluminum pan with a pinhole. The sample was heated under nitrogen, at a rate of 5° C. per minute from about −20° C. to about 140° C. […] Heating above the Tg allows the drug to phase separate from the dispersion if the drug solubility in the polymer is lower than the drug loading.
The sample was then cooled and the sample was scanned a second time using the procedures outlined above. […] The amount of phase separated amorphous drug was estimated by comparing the magnitude of the heat capacity for the phase separated amorphous drug with the heat capacity for pure amorphous drug controls. […]

[5] = Aqueous solubility of the drugs used in the examples; settings: water

Compound: CCOC(=O)N1c2ccc(C(F)(F)F)cc2[C@@H](N(Cc2cc(C(F)(F)F)cc(C(F)(F)F)c2)C(=O)OC)C[C@H]1CC [Crystalline Drug 1, [2R,4S]4-[(3,5-bis-trifluoromethyl-benzyl)-methoxycarbonyl-amino]-2-ethyl-6-trifluoromethyl-3,4-dihydro-2H-quinoline-1-carboxylic acid ethyl ester]
- AUC90 [1]: <88 min-μg/mL
- C1200 [1]: <1 µg/mL
- MDC,90 [1]: <1 µg/mL
- Maximum Flux of Drug 1 ([2]; feed solution 0.5% NaTC/POPC (MFD), permeate 20 wt % decanol in decane): 0.076 μg/cm^2-min
- Maximum Flux of Drug 1 ([2]; feed solution 2.0 wt % NaTC/POPC (fed state model)): 0.13 μg/cm^2-min

Compound: O=C1Cc2cc(CCN3CCN(c4nsc5ccccc45)CC3)c(Cl)cc2N1 [Crystalline Drug 5]
- AUC90 [3]: 1,700 min-μg/mL
- MDC,90 [3]: 22 µg/mL
- C1200 ([3]; 1200 minutes): 9 µg/mL

Compound: CCOC(=O)N1c2ccc(C(F)(F)F)cc2[C@@H](N(Cc2cc(C(F)(F)F)cc(C(F)(F)F)c2)C(=O)OC)C[C@H]1CC [Drug 1, [2R,4S]4-[(3,5-bis-trifluoromethyl-benzyl)-methoxycarbonyl-amino]-2-ethyl-6-trifluoromethyl-3,4-dihydro-2H-quinoline-1-carboxylic acid ethyl ester]
- solubility of the drug in the polymer ([4]; in the H grade of HPMCAS): 35-40 wt %
- solubility of the drug in the polymer ([4]; in the M grade of HPMCAS): 25 to 30 wt %
- solubility [5]: < 0.04 µg/mL

Compound: CCc1cc(Oc2cccc(N(Cc3cccc(OC(F)(F)C(F)F)c3)C[C@@H](O)C(F)(F)F)c2)ccc1Cl [Drug 4, (2R)-3-[[3-(4-chloro-3-ethylphenoxy)phenyl][[3-(1,1,2,2-tetrafluoroethoxy)phenyl]methyl]amino]-1,1,1-trifluoro-2-propanol]
- solubility [5]: < 1 µg/mL

Compound: O=C1Cc2cc(CCN3CCN(c4nsc5ccccc45)CC3)c(Cl)cc2N1 [Drug 5]
- solubility [5]: < 0.1 µg/mL and ~10 µg/mL

Further lines, results first:

- AUC90 [1]: <88 min-μg/mL
- C1200 [1]: <1 µg/mL
- MDC,90 [1]: <1 µg/mL
Compound: CC[C@@H]1C[C@H](N(Cc2cc(C(F)(F)F)cc(C(F)(F)F)c2)C(=O)OC)c2cc(C(F)(F)F)ccc2N1C(=O)OC(C)C [Crystalline Drug 3, [2R,4S]4-[(3,5-bis-trifluoromethyl-benzyl)-methoxycarbonyl-amino]-2-ethyl-6-trifluoromethyl-3,4-dihydro-2H-quinoline-1-carboxylic acid isopropyl ester]

- solubility [5]: < 1 µg/mL
Compound: CC[C@@H]1C[C@H](N(Cc2cc(C(F)(F)F)cc(C(F)(F)F)c2)C(C)=O)c2cc(C(F)(F)F)ccc2N1C(=O)OC(C)C [Drug 2, [2R,4S]4-[acetyl-(3,5-bis-trifluoromethyl-benzyl)-amino]-2-ethyl-6-trifluoromethyl-3,4-dihydro-2H-quinoline-1-carboxylic acid isopropyl ester]

- solubility [5]: < 1 µg/mL
Compound: CC[C@@H]1C[C@H](N(Cc2cc(C(F)(F)F)cc(C(F)(F)F)c2)C(=O)OC)c2cc(C(F)(F)F)ccc2N1C(=O)OC(C)C [Drug 3, [2R,4S]4-[(3,5-bis-trifluoromethyl-benzyl)-methoxycarbonyl-amino]-2-ethyl-6-trifluoromethyl-3,4-dihydro-2H-quinoline-1-carboxylic acid isopropyl ester]
